Reference: patent publication US6737383B1, “Herbicidal oxadiazolidines” (priority 1999, dated 2004)

Legend:
bedstraw = experiment: Test B pre/postemergence bedstraw; assay type: in vivo, Galium aparine; conditions: Preemergence, scale of 0 to 10 where 0 is no effect and 10 is complete control
How it was run: (§1)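 Herbicidal effect was estimated by eye on a ten-point control scale after plants spent twelve to sixteen days in a greenhouse following soil or foliar treatment. Foliar sprays targeted plants at one to four leaves; all doses were formulated in a non-phytotoxic solvent with surfactant.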

blackgrass = experiment: Test B pre/postemergence blackgrass; assay type: in vivo, Alopecurus myosuroides
How it was run: as §1

surinam grass = experiment: Test B pre/postemergence surinam grass; assay type: in vivo, Brachiaria decumbens
How it was run: as §1

cocklebur = experiment: Test B pre/postemergence cocklebur; assay type: in vivo, Xanthium strumarium
How it was run: as §1

corn = experiment: Test B pre/postemergence corn; assay type: in vivo, Zea mays
How it was run: as §1

giant foxtail = experiment: Test B pre/postemergence giant foxtail; assay type: in vivo, Setaria faberii
How it was run: as §1

morningglory = experiment: Test B pre/postemergence morningglory; assay type: in vivo, Ipomoea hederacea; conditions: for Plant response rating, Morningglory: scale of 0 to 10 where 0 is no effect and 10 is complete control
How it was run: as §1

pigweed = experiment: Test B pre/postemergence pigweed; assay type: in vivo, Amaranthus retroflexus; conditions: for Plant response rating, Redroot pigweed: scale of 0 to 10 where 0 is no effect and 10 is complete control
How it was run: as §1

rape = experiment: Test B pre/postemergence rape; assay type: in vivo, Brassica napus; conditions: for Plant response rating, Rape: scale of 0 to 10 where 0 is no effect and 10 is complete control
How it was run: as §1

soybean = experiment: Test B pre/postemergence soybean; assay type: in vivo, Glycine max; conditions: for Plant response rating, Soybean: scale of 0 to 10 where 0 is no effect and 10 is complete control
How it was run: as §1

sugar beet = experiment: Test B pre/postemergence sugar beet; assay type: in vivo, Beta vulgaris; conditions: for Plant response rating, Sugarbeets: scale of 0 to 10 where 0 is no effect and 10 is complete control
How it was run: as §1

velvetleaf = experiment: Test B pre/postemergence velvetleaf; assay type: in vivo, Abutilon theophrasti; conditions: for Plant response rating, Velvetleaf: scale of 0 to 10 where 0 is no effect and 10 is complete control
How it was run: as §1

wheat = experiment: Test B pre/postemergence wheat; assay type: in vivo, Triticum aestivum; conditions: for Plant response rating, Wheat: scale of 0 to 10 where 0 is no effect and 10 is complete control
How it was run: as §1

wild oat = experiment: Test B pre/postemergence wild oat; assay type: in vivo, Avena fatua; conditions: for Plant response rating, Wild oats: scale of 0 to 10 where 0 is no effect and 10 is complete control
How it was run: as §1

rice = experiment: Test B flood test rice; assay type: in vivo, Oryza sativa
How it was run: (§2)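 Plants were grown to the 2-leaf stage before treatment with test chemical, then held in a greenhouse for twelve to sixteen days. Injury was visually rated against untreated controls on a 0–10 scale, where 0 is no effect and 10 is complete control.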

smallflower flatsedge = experiment: Test B flood test smallflower flatsedge; assay type: in vivo, Cyperus difformis
How it was run: as §2

[1] = Postemergence, Rate 250 g/ha, scale 0 to 10
[2] = Postemergence, Rate 500 g/ha, scale of 0 to 10 where 0 is no effect and 10 is complete control
[3] = Preemergence, Rate 62 g/ha, scale of 0 to 10 where 0 is no effect and 10 is complete control
[4] = Preemergence, Rate 125 g/ha, scale of 0 to 10 where 0 is no effect and 10 is complete control
[5] = Preemergence, Rate 250 g/ha, scale 0 to 10, 0 is no effect, 10 is complete control
[6] = Preemergence, Rate 500 g/ha, scale 0 to 10, 0 is no effect, 10 is complete control
[7] = Rate 62 g/ha, Postemergence, scale 0 to 10, 0 no effect, 10 complete control
[8] = Rate 125 g/ha, Postemergence, scale 0 to 10, 0 is no effect, 10 is complete control
[9] = Rate 62 g/ha, flood test species, Pre-emergence, visual evaluation after twelve to sixteen days
[10] = Rate 125 g/ha, under heading Pre-emergence, flood test species, visual evaluation after twelve to sixteen days
[11] = Rate 250 g/ha, Pre-emergence (flood test species), scale 0 to 10, 0 is no effect, 10 is complete control
[12] = Rate 500 g/ha, Pre-emergence, flood test species, scale 0 to 10 (0 no effect, 10 complete control)

CC(C)N(C(=O)n1oc(=O)n(CC#N)c1=O)c1ccc(Cl)cc1 [Compound 476]
4: Redroot pigweed plant response rating (pigweed; [6])
1: Soybean plant response rating (soybean; [8]) | Velvetleaf plant response rating (velvetleaf; [8])
0: Plant response rating, Bedstraw (bedstraw; Rate 62 g/ha) | Plant response rating, Bedstraw (bedstraw; Rate 125 g/ha) | Blackgrass plant response rating (blackgrass; [1]) | Plant response rating, Blackgrass (blackgrass; [3]) | Plant response rating, Blackgrass (blackgrass; [4]) | Blackgrass plant response rating (blackgrass; [5]) | Blackgrass plant response rating (blackgrass; [6]) | Blackgrass plant response rating (blackgrass; [7]) | Blackgrass plant response rating (blackgrass; [8]) | B. signalgrass plant response rating (surinam grass; Postemergence, Rate 250 g/ha, scale 0 to 10, 0 no effect, 10 complete control) | B. signalgrass plant response rating (surinam grass; [2]) | Plant response rating, B. signalgrass (surinam grass; [3]) | Plant response rating, B. signalgrass (surinam grass; [4]) | B. signalgrass plant response rating (surinam grass; [5]) | B. signalgrass plant response rating (surinam grass; [6]) | B. signalgrass plant response rating (surinam grass; [7]) | B. signalgrass plant response rating (surinam grass; [8]) | Cocklebur plant response rating (cocklebur; [1]) | Cocklebur plant response rating (cocklebur; [2]) | Plant response rating, Cocklebur (cocklebur; [3]) | Plant response rating, Cocklebur (cocklebur; [4]) | Cocklebur plant response rating (cocklebur; [5]) | Cocklebur plant response rating (cocklebur; [6]) | Cocklebur plant response rating (cocklebur; [7]) | Cocklebur plant response rating (cocklebur; [8]) | Corn plant response rating (corn; [1]) | Corn plant response rating (corn; [2]) | Plant response rating, Corn (corn; [3]) | Plant response rating, Corn (corn; [4]) | Corn plant response rating (corn; [5]) | Corn plant response rating (corn; [6]) | Corn plant response rating (corn; [7]) | Corn plant response rating (corn; [8]) | Giant foxtail plant response rating (giant foxtail; [1]) | Giant foxtail plant response rating (giant foxtail; [2]) | Plant response rating, Giant foxtail (giant foxtail; [3]) | Plant response rating, Giant foxtail (giant foxtail; [4]) | Giant foxtail plant response rating (giant foxtail; [5]) | Giant foxtail plant response rating (giant foxtail; [6]) | Giant foxtail plant response rating (giant foxtail; [7]) | Giant foxtail plant response rating (giant foxtail; [8]) | Morningglory plant response rating (morningglory; [1]) | Plant response rating, Morningglory (morningglory; Preemergence, Rate 62 g/ha) | Plant response rating, Morningglory (morningglory; Preemergence, Rate 125 g/ha) | Morningglory plant response rating (morningglory; [5]) | Morningglory plant response rating (morningglory; [6]) | Morningglory plant response rating (morningglory; [7]) | Morningglory plant response rating (morningglory; [8]) | Redroot pigweed plant response rating (pigweed; [1]) | Plant response rating, Redroot pigweed (pigweed; Preemergence, Rate 62 g/ha) | Plant response rating, Redroot pigweed (pigweed; Preemergence, Rate 125 g/ha) | Redroot pigweed plant response rating (pigweed; [7]) | Redroot pigweed plant response rating (pigweed; [8]) | Rape plant response rating (rape; [1]) | Plant response rating, Rape (rape; Preemergence, Rate 62 g/ha) | Plant response rating, Rape (rape; Preemergence, Rate 125 g/ha) | Rape plant response rating (rape; [5]) | Rape plant response rating (rape; [6]) | Rape plant response rating (rape; [7]) | Rape plant response rating (rape; [8]) | Plant response rating, Soybean (soybean; Preemergence, Rate 62 g/ha) | Plant response rating, Soybean (soybean; Preemergence, Rate 125 g/ha) | Soybean plant response rating (soybean; [5]) | Soybean plant response rating (soybean; [6]) | Soybean plant response rating (soybean; [7]) | Sugarbeets plant response rating (sugar beet; [1]) | Plant response rating, Sugarbeets (sugar beet; Preemergence, Rate 62 g/ha) | Plant response rating, Sugarbeets (sugar beet; Preemergence, Rate 125 g/ha) | Sugarbeets plant response rating (sugar beet; [5]) | Sugarbeets plant response rating (sugar beet; [6]) | Sugarbeets plant response rating (sugar beet; [7]) | Sugarbeets plant response rating (sugar beet; [8]) | Plant response rating, Velvetleaf (velvetleaf; Preemergence, Rate 62 g/ha) | Plant response rating, Velvetleaf (velvetleaf; Preemergence, Rate 125 g/ha) | Velvetleaf plant response rating (velvetleaf; [5]) | Velvetleaf plant response rating (velvetleaf; [6]) | Velvetleaf plant response rating (velvetleaf; [7]) | Wheat plant response rating (wheat; [1]) | Plant response rating, Wheat (wheat; Preemergence, Rate 62 g/ha) | Plant response rating, Wheat (wheat; Preemergence, Rate 125 g/ha) | Wheat plant response rating (wheat; [5]) | Wheat plant response rating (wheat; [6]) | Wheat plant response rating (wheat; [7]) | Wheat plant response rating (wheat; [8]) | Wild oats plant response rating (wild oat; [1]) | Plant response rating, Wild oats (wild oat; Preemergence, Rate 62 g/ha) | Plant response rating, Wild oats (wild oat; Preemergence, Rate 125 g/ha) | Wild oats plant response rating (wild oat; [5]) | Wild oats plant response rating (wild oat; [6]) | Wild oats plant response rating (wild oat; [7]) | Wild oats plant response rating (wild oat; [8]) | Plant response rating, Rice (0 to 10 scale, 0 is no effect, 10 is complete control) (rice; [9]) | Rice plant response rating (0 to 10 scale, 0 is no effect, 10 is complete control) (rice; [10]) | Rice plant response rating (rice; [11]) | Rice plant response rating (rice; [12]) | Plant response rating, S. Flatsedge (0 to 10 scale, 0 is no effect, 10 is complete control) (smallflower flatsedge; [9]) | S. Flatsedge plant response rating (0 to 10 scale, 0 is no effect, 10 is complete control) (smallflower flatsedge; [10]) | S. Flatsedge plant response rating (smallflower flatsedge; [11]) | S. Flatsedge plant response rating (smallflower flatsedge; [12])
2: Blackgrass plant response rating (blackgrass; [2]) | Redroot pigweed plant response rating (pigweed; [5]) | Soybean plant response rating (soybean; [1]) | Velvetleaf plant response rating (velvetleaf; [1])
